One series has as its target T1, C5a receptor (Mus musculus, UniProt P30993).
T1 sequence (P30993 1-351): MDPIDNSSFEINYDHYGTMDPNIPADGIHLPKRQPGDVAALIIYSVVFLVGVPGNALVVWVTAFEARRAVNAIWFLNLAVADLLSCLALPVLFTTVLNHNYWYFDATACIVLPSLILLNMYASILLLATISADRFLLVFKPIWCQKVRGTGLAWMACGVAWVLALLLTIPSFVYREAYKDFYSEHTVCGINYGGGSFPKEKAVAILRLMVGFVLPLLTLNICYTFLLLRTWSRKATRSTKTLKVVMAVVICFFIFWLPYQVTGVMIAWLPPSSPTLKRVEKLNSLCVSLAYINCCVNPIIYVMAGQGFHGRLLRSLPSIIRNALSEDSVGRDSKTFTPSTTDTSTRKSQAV
The settings on record: cited from earlier work.

For series [1] the following is noted: in vivo; cited from earlier work.
Series [2] concerns classical complement pathway. Nature of the series: sheep erythrocyte lysis assay (complement-mediated lysis of sensitized sheep erythrocytes in normal human serum). In kind it is cell-based. The settings on record: for Inhibition of complement-mediated sheep erythrocyte lysis: 240 nM to 50 uM added to normal human serum, 37° C., 30 min, hemoglobin absorption at 412 nm. As for the experimental part: FIG. 1. […] Various concentrations of pterostilbene, ranging from 240 nM to 50 uM were added to normal human serum, which was then incubated at 37° C. with sensitized sheep erythrocytes.
The lysis of the sheep erythrocytes is mediated by the classical complement pathway.
Various concentrations of pterostilbene, ranging from 240 nM to 50 uM were added to normal human serum, which was then incubated at 37° C. with sensitized sheep erythrocytes. After a 30 min incubation, the remaining unlysed erythrocytes were pelleted by centrifugation and the amount of hemoglobin released by cell lysis was quantified by absorption spectroscopy at wavelength of 412 nm. Inhibition of lysis indicates reduced complement activity. This is representative data from 3 separate experiments.

In the next series the test system is CA1 neurons. The settings on record: in vivo; cited from earlier work.

Turning to PMX53, the “beta amyloid induced loss of MAP-2” value at C5a receptor is “blocked”.

Turning to `COc1cc(/C=C/c2ccc(O)cc2)cc(OC)c1` [CCB-695, pterostilbene], the bioavailability result in series [1] was “superior pharmacokinetics and bioavailability”. Besides, the “Inhibition of complement-mediated sheep erythrocyte lysis” value in series [2] is “inhibition of complement-mediated sheep erythrocyte lysis”. The “concentration active to inhibit complement system” value in series [2] (in human serum) is listed as “lower than 1 μM”. The “potency in the sheep erythrocyte lysis assay relative to the other stilbene” value in series [2] (pterostilbene versus resveratrol) is “greater potency than resveratrol”.

For the molecule `Oc1ccc(C=Cc2cc(O)cc(O)c2)cc1` [Resveratrol], the “protection of CA1 neurons from ischemia reperfusion damage” value in the series on CA1 neurons was “protects CA1 neurons from ischemia reperfusion damage”. Also, the bioavailability result in series [1] is “poor bioavailability”. Also, the “Inhibition of complement-mediated sheep erythrocyte lysis” value in series [2] is given as “active”.

The record behind these values is patent publication US20190038571A1, “Orally Available Small Molecules to Inhibit the Function of the Complement System” (priority 2017, published 2019).
